Data published in patent publication US20230069886A1, “AROMATIC SULPHONAMIDES DERIVATIVES THAT INHIBITS PDI A3, THEIR SYNTHESIS AND USE” (Uniwersytet Jagiellonski, priority 2020, published 2023).
In brackets after ≈: the same amount, converted by molar mass.

Columns and labels:
PDI A3 = target: T1, PDI A3 (Homo sapiens, UniProt P30101); assay: PDI A3 inhibition, insulin turbidimetric assay; format: biochemical; details: 10 ug/ml PDI A3, incubated 60 min at 37° C., turbidity at 650 nm; read-out: Inhibition of PDI A3 (EC 50)
T1 construct: purchased Mybiosource; host or cells: E. coli
T1 sequence (P30101 25-505): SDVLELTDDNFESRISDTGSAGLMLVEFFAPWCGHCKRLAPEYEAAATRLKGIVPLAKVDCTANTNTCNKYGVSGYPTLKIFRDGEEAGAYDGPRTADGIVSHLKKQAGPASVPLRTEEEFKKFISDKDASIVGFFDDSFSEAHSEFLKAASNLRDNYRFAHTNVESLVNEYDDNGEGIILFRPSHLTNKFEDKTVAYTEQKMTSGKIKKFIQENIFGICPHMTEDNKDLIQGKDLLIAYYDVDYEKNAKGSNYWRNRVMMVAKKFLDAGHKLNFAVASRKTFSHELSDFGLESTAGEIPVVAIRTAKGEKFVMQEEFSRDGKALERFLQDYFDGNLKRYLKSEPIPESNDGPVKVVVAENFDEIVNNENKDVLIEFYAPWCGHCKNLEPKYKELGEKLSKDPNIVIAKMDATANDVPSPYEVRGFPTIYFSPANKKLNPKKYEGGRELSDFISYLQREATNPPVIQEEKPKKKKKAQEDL
In short: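 Recombinant E. coli-expressed PDIA3 (10 ug/ml) was preincubated with compound for 60 min at 37° C in 0.1 mM phosphate buffer pH 7.6, 1 mM EDTA, 0.087 mM DTT. Reaction was started with insulin (0.15 mM final) and DTT (0.174 mM final). Insulin reduction was followed as turbidity at 650 nm over 120-s recordings, against reference samples without PDI.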

HL-60 = assay: MTT antiproliferative assay, 72 h, HL-60; format: cell-based, human; details: 72 hours exposition
Protocol: (§1) Anticancer activity of selected compounds of invention, PDI A3-inhibitors has been also tested in vitro in antiproliferative assay in normoxic and hypoxic conditions as well in estrogen-stimulated cancer cells. In the experiment, cells were seeded on 96-well plates (Sarstedt, Germany) in appropriate culture medium at a density of 10^5 cells/mL 24 h before adding the tested compounds. Cells were treated with each compound in four concentrations in the range 0.1-100 μg/mL. […] After 72 h of compound treatment at 37° C., 5% CO2 humid atmosphere and in wo different oxygen level conditions: 21%—normal and <1%—hypoxia. In some experiments the MDA-MB-231 and MCF-7 cells were seeded with or without 200 nM estradiol and after 24 h the tested compounds were added. A previously described sulforhodamine B antiproliferative assay was used with minor modifications (Skehan P et al., 1990). Briefly, cells were fixed with 50 μL/well of 50% (w/v) trichloroacetic acid (Avantor Performance Materials, Gliwice, Poland). After 1 h incubation, plates were washed several times with tap water and 50 μL of 0.4% (w/v) solution of sulforhodamine B (Sigma-Aldrich, Germany) in 1% (v/v) acetic acid (Avantor Performance Materials, Gliwice, Poland) was added to each well. After 30 min incubation at room temperature, unbound dye was washed out with 1% (v/v) acetic acid, whereas bound dye was solubilized with 10 mM unbuffered TRIS (Avantor Performance Materials, Gliwice, Poland) solution. The entire procedure was performed using a BioTek EL-406 washing station (BioTek Instruments, USA). After additional 30 min, absorbance was read using a Biotek Hybrid H4 reader (BioTek Instruments, USA) at 540 nm wavelength. MTT assay was used alternatively for HL-60 cell line and in the experiment in which estrogens are added (specified in the table legend). Absorbance was measured using a Biotek Hybrid H4 reader at 570 nm wavelength for MTT assay.
(§2) Compounds at each concentration were tested in triplicate in a single experiment and each experiment was repeated at least three times independently. Results are presented as mean IC50±SD.

MCF-7 = assay: MTT antiproliferative assay, 48 h, MCF-7; format: cell-based, human; details: 48-hour exposition, read-out: Cytotoxicity, IC50, μM MCF-7
Protocol: Anticancer activity of compounds of invention, PDI A3-inhibitors has been tested in vitro in classical antiproliferative assay in various cancer cells lines. Monolayer tumor cell lines MDA-MB-231 (human mammary breast adenocarcinoma), MCF-7 (human breast adenocarcinoma, estrogen-positive), HT-1080 (human fibrosarcoma) and Caco-2 (human colon adenocarcinoma) were cultured in standard medium DMEM (Dulbecco's modified Eagle's medium) (“Sigma”) supplemented with 10% foetal bovine serum (“Sigma”). About 2000-4000 cells per well (depending on line nature) were placed in 96-well plates and after 24 h compounds were added to the wells. Untreated cells were used as a control. The plates were incubated for 48 h, 37° C., 5% CO2. The number of surviving cells was determined using 3-(4,5-dimethylthiazol-2-yl)-2,5-diphenyltetrazolinium bromide (MTT). MTT-test: after incubating culture medium was removed and 200 μL fresh medium with 20 μL MTT (2 mg/mL in HBSS) was added in each well of the plate. After incubation (3 hr., 37° C., 5% CO2), the medium with MTT was removed and 200 μL DMSO were added at once to each sample. The samples were tested at 540 nm on Thermo Scientific Multiskan EX microplate photometer. The half-maximal inhibitory concentration (IC50) of each compound was calculated using Graph Pad Prism® 3.0.

MDA-MB-231 = assay: MTT antiproliferative assay, 72 h, with or without estradiol, MDA-MB-231; format: cell-based, human
Protocol: as §1, §2

COC(=O)C1CN1S(=O)(=O)c1ccc2c(C=O)c(N(C)C)ccc2c1 (stereo not drawn) [Compound C-3390, Methyl 1-[[6-(dimethylamino)-5-formyl-2-naphthyl]sulfonyl]aziridine-2-calboxylate]
EC50 (PDI A3): 4 µM | IC50 [μg/ml] HL-60 normal (HL-60): 14.4 ± 0.7 µg/mL (≈ 39.7 µM) | IC50 (MCF-7): 20 ± 0.3 µM | Sensitivity of MDA-MB-231 line after treatment with estradiol (MDA-MB-231; estradiol (200 nM), Table 4): slightly lower sensitivity | IC50 [μg/ml] MDA-MB-231 normal (MDA-MB-231; not pretreated with estradiol, 72 hours exposition, MTT): 3.2 ± 0.2 µg/mL (≈ 8.83 µM) | IC50 [μg/ml] MDA-MB-231 +estradiol (MDA-MB-231; pretreated with 200 nM estradiol, 72 hours exposition, MTT): 9.4 ± 3.5 µg/mL (≈ 25.9 µM)
